Results reported in patent US7179842B2, “Method of treating non-insulin dependent diabetes mellitus with phytanic acid derivatives” (priority 2000, dated 2007).
Read-outs that look alike come from different tables or passages of the source.

Assays:
RXR [1] = conditions: cited from earlier work
[2] = molecular target: all-trans-retinoic acid receptor (RAR); conditions: cited from earlier work
GLUT-1 mRNA = experiment: Quantitative RT-PCR (TaqMan) mRNA level, GLUT-1; assay type: cell-based, rat; conditions: for GLUT-1 mRNA levels / GLUT-1 mRNA induction: 24 h
Procedure: (§1) The data is presented as means of 3 independent experiments.
(§2) For the quantification of the expression levels the novel Real Time Quantitative TaqMan™ PCR using the multiplex method was employed. Total RNA was isolated using the RNeasy kit from QIAGEN (Valencia, Calif.). The first strand cDNA was synthesized in a 20 μl reaction from 5 μg total RNA by reverse transcription with the. […] Subsequently the cDNA was diluted to 500 μl. In a 50 μl reaction, 10 μl cDNA was amplified in the 7700 Sequence Detector (PE Biosystems, Foster City, Calif.), using the Universal Master Mix (PE Biosystems, Foster City, Calif.) and the following PCR-primers and TaqMan™-probes at the concentrations of 300 nM and 100 nM, respectively, and PCR-primers and TaqMan™-probes for the reference gene β-actin at concentration of 50 nM.
(§3) The induction of gene expression, and corresponding error bars were calculated from 3 independent experiments using the ΔCT method according to the manufacturer's protocol.

glucokinase mRNA = experiment: Quantitative RT-PCR (TaqMan) mRNA level, glucokinase; assay type: cell-based, rat; conditions: 100 μM, 24 h
Procedure: as §1, §2, §3

GLUT-2 mRNA = experiment: Quantitative RT-PCR (TaqMan) mRNA level, GLUT-2; assay type: cell-based, rat; conditions: 24 h
Procedure: as §1, §2, §3

PEPCK mRNA = experiment: Quantitative RT-PCR (TaqMan) mRNA level, PEPCK; assay type: cell-based, rat
Procedure: as §1, §2, §3

[3] = tested on: lipoprotein lipase (LPL) mRNA; experiment: Quantitative RT-PCR (TaqMan) mRNA level, LPL; assay type: cell-based, rat; conditions: 10 μM for 24 h
Procedure: (§4) The mRNA levels were determined with the TaqMan™ methodology after a 24 h stimulation of the rat primary hepatocytes with 10 μM phytanic acid, palmitic acid, and DHA. mRNA levels were normalized to β-actin expression and expressed relative to untreated cells. The data is presented as means of 3 independent experiments. Error bars were calculated as described in Example 3.
(§5) For the quantification of the expression levels the novel Real Time Quantitative TaqMan™ PCR using the multiplex method was employed. Total RNA was isolated using the RNeasy kit from QIAGEN (Valencia, Calif.). The first strand cDNA was synthesized in a 20 μl reaction from 5 μg total RNA by reverse transcription with the. SuperScriptII™ Reverse Transcriptase Kit (Life Technologies Inc., Coralville Iowa) and 100 ng random hexamers, as previously described (Zimmermann, U., Fluehmann, B., Born, W., Fischer, J., A. & Muff, R. (1997) Coexistence of Novel Amylin-Binding Sites With Calcitonin Receptors in Human Breast Carcinoma Mcf-7 Cells, Journal of Endocrinology. 155, 423–431). Subsequently the cDNA was diluted to 500 μl. […]
as §3

Rat primary hepatocytes [4] = experiment: [3H]-2-deoxy-D-glucose uptake in hepatocytes; assay type: cell-based; conditions: 24 h treatment
Procedure: Rat primary hepatocytes were cultured for 24 h at 37° C. in media containing phytanic acid 10 μM (□) and 100 μM (▪), palmitic acid 100 μM ( ), DHA 100 μM (∘), and control (▴). Subsequently [3H]-2-deoxy-D-glucose uptake was measured after 15, 30, and 60 min incubation period.
Cells cultured in 24-well plates were treated for 24 h with phytanic acid, palmitic acid, and DHA. Subsequently the medium was removed and cells were washed twice with pre-warmed phosphate buffered saline, pH 7.4 (PBS). 500 μl of pre-warmed glucose reaction mixture (0.01 mM 2-deoxy-D-glucose and 3 μCi/ml [3H]-2-deoxy-D-glucose in PBS) was then added to the cells. The reaction mixture was further incubated at 37° C. for different time intervals. The reaction was terminated by aspirating the reaction mixture and washing the cells twice with ice cold 10 mM 2-deoxy-D-glucose in PBS. Cells were then solubilized with 500 μl of 1% sodium dodecyl sulfate, 400 μl of which was transferred to scintillation vials containing 5 ml Quickszint 1 (Zinsser Analytic, Frankfurt, Germany). Radioactivity was counted in a Tri-Carb 2500 (Packard, Meriden, Conn.) liquid scintillation counter. The remaining lysate was used for protein content determination with the BCA Protein Assay Reagent Kit (Pierce, Rockford, Ill.). Data are expressed as means±SD from 3 independent experiments.

[5] = tested on: low-density lipoprotein receptor (LDLR) mRNA; experiment: Quantitative RT-PCR (TaqMan) mRNA level, LDLR; assay type: cell-based, rat; conditions: 10 μM for 24 h
Procedure: as §4, §5, §3

[6] = tested on: cytochrome P450/4A1 (Cyp4al) mRNA; experiment: Quantitative RT-PCR (TaqMan) mRNA level, Cyp4a1; assay type: cell-based, rat; conditions: 10 μM for 24 h
Procedure: as §4, §5, §3

PPARα = molecular target: T1, PPARα (Homo sapiens, UniProt Q07869); conditions: read-out: Kd-value as PPARα ligand; cited from earlier work
T1 sequence (Q07869 1-468): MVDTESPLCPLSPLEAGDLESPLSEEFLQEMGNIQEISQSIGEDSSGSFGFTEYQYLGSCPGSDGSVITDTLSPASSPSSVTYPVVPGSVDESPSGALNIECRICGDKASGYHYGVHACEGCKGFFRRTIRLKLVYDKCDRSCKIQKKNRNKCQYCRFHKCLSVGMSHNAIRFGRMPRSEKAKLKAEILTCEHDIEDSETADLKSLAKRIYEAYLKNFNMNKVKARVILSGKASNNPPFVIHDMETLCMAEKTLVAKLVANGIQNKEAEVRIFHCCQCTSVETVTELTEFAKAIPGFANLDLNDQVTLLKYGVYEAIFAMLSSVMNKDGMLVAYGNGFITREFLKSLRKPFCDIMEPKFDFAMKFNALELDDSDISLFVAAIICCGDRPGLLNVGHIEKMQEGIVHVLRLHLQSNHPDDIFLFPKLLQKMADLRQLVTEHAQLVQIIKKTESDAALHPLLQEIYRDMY

[7] = tested on: apolipoprotein E (ApoE) mRNA; experiment: Quantitative RT-PCR (TaqMan) mRNA level, ApoE; assay type: cell-based, rat; conditions: 10 μM for 24 h
Procedure: as §4, §5, §3

[8] = tested on: tumor necrosis factor α (TNFα) mRNA; experiment: Quantitative RT-PCR (TaqMan) mRNA level, TNFα; assay type: cell-based, rat; conditions: 10 μM for 24 h
Procedure: as §4, §5, §3

[9] = tested on: apolipoprotein A1 (ApoA1) mRNA; experiment: Quantitative RT-PCR (TaqMan) mRNA level, ApoA1; assay type: cell-based, rat; conditions: 10 μM for 24 h
Procedure: as §4, §5, §3

RXR [10] = conditions: read-out: RXR receptor binding IC50; cited from earlier work
plasma insulin = experiment: In vivo study, plasma insulin in rats fed phytanic acid; design: species or system male Wistar rats; conditions: 150 and 750 mg phytanic acid/kg feed, day 7, vs control chow
Procedure: Male Wistar rats were adapted for two days and then fed with the respective substance. The values are means±SD (see Example 4).
To determine the beneficial effect of phytanic acid on plasma insulin levels, a study was performed using male Wistar rats. The animals were adapted for two days and then fed with control chow, 150 mg phytanic acid/kg feed (P-10), and 750 mg phytanic acid/kg feed (P-50), respectively. Blood samples were taken at day 7 and the insulin concentration in the plasma was measured (FIG. 7).

[11] = tested on: liver fatty acid binding protein (LFABP) mRNA; experiment: Quantitative RT-PCR (TaqMan) mRNA level, LFABP; assay type: cell-based, rat; conditions: 10 μM for 24 h
Procedure: as §4, §5, §3

Rat primary hepatocytes [12] = conditions: 24 h, 1 mM
HMG-CoA reductase mRNA = experiment: Quantitative RT-PCR (TaqMan) mRNA level, HMG-CoA reductase; assay type: cell-based, rat; conditions: 10 μM for 24 h
Procedure: as §4, §5, §3

[13] = cited from earlier work
[14] = adult mice, 0.5% phytol diet for 21 days; cited from earlier work
[15] = concentrations lower than 100 μM

CC1=C(/C=C/C(C)=C\C=C\C(C)=C\C(=O)O)C(C)(C)CCC1 [9-cis-retinoic acid, reference compound]
EC50 ([2]; read-out: RAR activation EC50): 13 nM

CC/C=C\C/C=C\C/C=C\C/C=C\C/C=C\C/C=C\CCC(=O)O [DHA, docohexaenoic acid, reference compound]
GLUT-1 mRNA levels (GLUT-1 mRNA; concentrations up to 100 μM): did not affect
transcription of glucokinase mRNA (glucokinase mRNA): reduced
GLUT-2 mRNA levels (GLUT-2 mRNA): did not affect
transcription of PEPCK mRNA (PEPCK mRNA; 100 μM, 24 h): reduced

CCCCCCCCCCCCCCCC(=O)O [palmitic acid, reference compound]
GLUT-1 mRNA induction (GLUT-1 mRNA; 100 μM): 2.4 (1.7–3.3) fold
GLUT-1 mRNA levels (GLUT-1 mRNA; [15]): did not affect
transcription of glucokinase mRNA (glucokinase mRNA): reduced
GLUT-2 mRNA levels (GLUT-2 mRNA; low concentrations): minor induction
transcription of PEPCK mRNA (PEPCK mRNA; 100 μM, 24 h): reduced

CC(C)CCCC(C)CCCC(C)CCCC(C)CC(=O)O (stereo not shown) [phytanic acid]
LPL transcript [3]: increase
2-deoxy-D-glucose uptake vs control, palmitic acid or DHA (Rat primary hepatocytes [4]; 100 μM, uptake over 15, 30, 60 min): substantial increase
2-deoxy-D-glucose uptake (Rat primary hepatocytes [4]; [15]): no measurable effect
LDLR transcript [5]: increase
Cyp4a1 transcript [6]: increase
GLUT-1 mRNA induction (GLUT-1 mRNA; 100 μM): 2.2 (1.6–2.9) fold
GLUT-1 mRNA maximal induction (GLUT-1 mRNA; 100 μM, after 6 hours, normalized to β-actin, relative to untreated): 5.6 (5.1–6.2) fold
GLUT-1 mRNA levels (GLUT-1 mRNA; [15]): did not affect
Kd (PPARα): 10 nM
EC50 (RXR [1]; read-out: RXR transcriptional effects EC50): 3000 nM
glucokinase mRNA induction (glucokinase mRNA): 3.0 (2.5–3.4) fold
ApoE mRNA [7]: downregulated
TNFα transcript [8]: increase
ApoA1 mRNA [9]: downregulated
activity on retinoid receptors (RXR vs RAR) [2]: restricted to RXR receptors
IC50 (RXR [10]): 2300 nM
plasma insulin (plasma insulin): could reduce the plasma insulin
GLUT-2 mRNA maximal induction (GLUT-2 mRNA; 100 μM): 3.2 (2.7–3.8) fold
GLUT-2 mRNA induction (GLUT-2 mRNA; 0.01–100 μM): at least 2 fold
LFABP mRNA levels [11]: remained unaffected
cells survived compared to untreated (Rat primary hepatocytes [12]): 54±17%
HMG-CoA reductase transcript (HMG-CoA reductase mRNA): increase
PEPCK transcript (PEPCK mRNA; 10 μM for 24 h): increase
PEPCK mRNA induction (PEPCK mRNA; 100 μM, 24 h): 2.5 (1.7–3.6) fold
PEPCK mRNA maximal induction (PEPCK mRNA; 100 μM, after 6 hours): 4.4 (3.4–5.7) fold

C/C(=C\CO)CCC[C@H](C)CCC[C@H](C)CCCC(C)C [phytol]
intestinal absorption from dietary chlorophyll ([13]; rat and man): minimal
absorption compared with phytanic acid ([13]; rats): much less well adsorbed than phytanic acid
cholesterol serum levels [14]: remained unaffected
decrease in triglyceride serum levels [14]: 40%
